# Results from publication PMC3842960, “Natural Stilbenoids Isolated from Grapevine Exhibiting Inhibitory Effects against HIV-1 Integrase and Eukaryote MOS1 Transposase In Vitro Activities” (PLoS ONE, 2013).
# Columns and labels:
# Mos1 transposase (MOS1) [1] = biological target: T1, Mos1 transposase (MOS1) (Drosophila mauritiana, UniProt Q7JQ07); assay: MOS1 in vitro transposition assay (genetic hop experiment); format: biochemical, D. mauritiana
# T1 construct: involving the full-length Mos1 transposase (MOS1) was recently solved; made in house
# Experimental: The wild type Mos1 transposase (MOS1: 345 amino acids) was produced and purified as a fusion protein linked to the maltose-binding protein by using the pMal-c2 system (New England Biolabs) and following the manufacturer's instructions.
# In vitro transposition reactions were performed using pBC-3T3 as both the donor DNA and the target, as previously described. Briefly, the basic transposition reaction mixtures contained 10 mM Tris-HCl (pH 9), 50 mM NaCl, 20 mM MgCl2, 0.5 mM EDTA, 5% glycerol, 5 ng/ml BSA, 600 ng pBC-3T3, and 80 nM purified MBP-MOS1 (added last) in a volume of 20 µl. Inhibitors (25 or 10 µM, as specified) or DMSO (2%) were added to the reaction mixtures before the transposase. The reactions were allowed to proceed for 30 min at 30°C. After phenol-chloroform extraction and ethanol precipitation, 10% of the reaction mixture was transformed in electro-competent JM109 E. coli (2 mm cuvette, 1.5 kV in a MicroPulser™BioRad). Appropriate dilutions of each reaction mixture were plated on LB-tetracycline (12.5 µg/ml) agar and LB-chloramphenicol (80 µg/ml) agar to score the transposition rate. The transposition rate was the number of Tet^R colonies divided by the number of Chloram^R plus Tet^R colonies. Each condition was done at least three times in independent experiments.
# To identify the natural stilbenes active on MOS1, the 17 molecules were tested using an in vitro genetic “hop” experiment, which is the most sensitive test available as yet. Purified MOS1 was incubated with the pBC-3T3 plasmid, which was used both as the transposon donor and the target plasmid. This plasmid contains the pBR322 tetracycline resistance gene (without promoter) framed by two Mos1 ITRs. This reconstitutes a pseudo-Mos1 element named 3T3. We took advantage of the fact that the cat gene (present in the pBC backbone) is a hotspot for Mos1 integration. […] Transposition events were recovered by bacterial transformation with selection for tetracycline resistance, as a gain-of-function landmark for transposition. […] Controls correspond to assays performed without molecule but with DMSO, which is routinely used as the solvent. […] To confirm the efficiency of the six molecules, they were similarly assayed at 10 µM ( figure 6B ). Since they appeared to be still active at 10 µM, they were further characterized in order to identify the targeted step of the transposition cycle.
# Mos1 transposase (MOS1) [2] = biological target: T1, Mos1 transposase (MOS1); assay: MOS1 in vitro ITR integration assay; format: biochemical, D. mauritiana; settings: for inhibition of the integration step: 25 and 10 µM, molecules added after formation of MOS1-ITR complexes
# Experimental: These assays were performed using pre-cleaved 3′ITRs (PC-ITR), i.e. ITRs in the configuration expected after excision. […]. Prior to annealing, the transferred strand (70-TS-PC) was 5′-end labelled using T4 polynucleotide kinase (Promega) and γ-^32P-ATP following the manufacturer's instructions. Oligonucleotides were provided by Eurofins MWG Biotech (Germany) or Eurogentec (Belgium). Reaction mixtures containing 10 mM Tris-HCl (pH 9), 50 mM NaCl, 1 mM DTT, 5% glycerol, 100 ng BSA, 100 nM of labelled PC-ITR and 100 nM MBP-MOS1 in a final volume of 20 µl were incubated at 30°C for 30 min. The pBC plasmid (which contained the cat gene, a hot-spot for Mos1 insertion) was then added to 30 ng/µL along with 5 mM MgCl2. Molecules (25 or 10 µM, as specified) or DMSO (2%) were added to the reaction mixtures along with the target DNA to estimate their effect on integration. Reactions were carried out for 3 hours at 30°C. 0.1 mg/ml proteinase K and 0.1% SDS were added to stop the reaction. DNA products were purified by phenol-chloroform extraction and ethanol precipitated using standard techniques. DNA products were resuspended in DNA loading buffer, then separated onto a 1% agarose gel in 1X TAE (Tris Acetate EDTA) buffer. The gel was dried onto a nitrocellulose membrane (Hybond N+, GE Healthcare), scanned using a Storm, and analysed with ImageQuant software. Signals were quantified using ImageQuant software. Efficiency of integration was calculated as the intensity of the integration signal divided by the intensity of free target signal plus integration signal. Each condition was tested at least twice.
# The assay used for this step is similar to the HIV-1 IN concerted integration. Briefly, pre-cleaved labelled ITRs are used to form the integration complex. A super-coiled plasmid is used as target DNA. Integration events give a linear labelled plasmid, which can be detected. In these tests, the molecules are added after formation of MOS1-ITR complexes, along with a target plasmid to solely examine the integration inhibition. […] Controls correspond to assays performed without molecule but with DMSO. Reactions were performed at least twice for each selected molecule (leachianol G, leachianol F, quadrangularin A, hopeaphenol, vitisin B and pallidol) and the excision activity is shown in figure 8B .
# HIV-1 IN = HIV-1 IN (Human immunodeficiency virus type 1 group M subtype B, UniProt P04585); assay: HIV-1 IN in vitro concerted integration assay (processed or unprocessed donor DNA)
# T1 sequence (Q7JQ07 whole entry): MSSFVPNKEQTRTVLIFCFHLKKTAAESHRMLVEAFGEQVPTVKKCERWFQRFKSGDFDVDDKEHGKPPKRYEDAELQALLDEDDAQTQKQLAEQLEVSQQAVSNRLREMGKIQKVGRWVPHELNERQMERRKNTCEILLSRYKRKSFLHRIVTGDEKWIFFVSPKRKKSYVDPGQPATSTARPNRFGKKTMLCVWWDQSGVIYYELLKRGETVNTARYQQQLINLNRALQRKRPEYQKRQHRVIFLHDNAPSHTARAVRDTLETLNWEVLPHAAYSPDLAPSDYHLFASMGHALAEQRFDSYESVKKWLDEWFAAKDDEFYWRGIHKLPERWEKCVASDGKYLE
Structure (SMILES),activity against MOS1 in transposition assay (Mos1 transposase (MOS1) [1]; 10 µM),activity against MOS1 in transposition assay (Mos1 transposase (MOS1) [1]; 25 µM),IC50 (Mos1 transposase (MOS1) [2]),inhibition of the integration step (Mos1 transposase (MOS1) [2]),inhibition at 10 µM (HIV-1 IN; read-out: inhibition of concerted integration),inhibition of concerted integration from processed and unprocessed donor (HIV-1 IN; increasing concentrations)
Oc1ccc([C@@H]2c3c(O)cc(O)cc3[C@H]3c4c(cc(O)cc4C2C2c4cc(O)cc5c4[C@H](c4cc(O)cc(O)c4[C@H]2c2ccc(O)cc2)[C@@H](c2ccc(O)cc2)O5)O[C@@H]3c2ccc(O)cc2)cc1 (stereo partly shown) [hopeaphenol],still active,active against MOS1,~6.5 µM,significantly inhibited,< 5%,–
Oc1ccc([C@@H]2c3c(O)cc(O)cc3[C@H]3[C@H](c4ccc(O)cc4)c4c(O)cc(O)cc4[C@@H]23)cc1 [pallidol],still active,active against MOS1,~10 µM,significantly inhibited,–,inhibited both activities
